Experiments:
[1] = tested on: IGROV-ET; assay: Inhibition of cells growth by colorimetric (SRB) assay, IGROV-ET; conditions: for GI50 / CC50: Homo sapiens, 48 h; for GI50: read-out: IGROV-ET GI50, SRB assay, 48 hours exposure; for CC50: read-out: IGROV-ET LC50, SRB assay, 48 hours exposure; for IGROV-ET TGI: SRB assay, 48 hours exposure
Method in brief: (§1)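 Human tumour cells in RPMI 1640 with 10% FBS were seeded at 5×10^3 cells/well, allowed to attach for 18 h, then exposed to samples at 10 to 10^−8 μg/ml for 48 h. Growth was measured by SRB staining after TCA fixation, with absorbance read at 490 nm in triplicate wells.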

[2] = tested on: LoVo-Dox; assay: Inhibition of cells growth by colorimetric (SRB) assay, LoVo-Dox; conditions: for GI50 / CC50: Homo sapiens, 48 h; for GI50: read-out: LOVO-DOX GI50, SRB assay, 48 hours exposure; for CC50: read-out: LOVO-DOX LC50, SRB assay, 48 hours exposure; for LOVO-DOX TGI: SRB assay, 48 hours exposure
Method in brief: as §1

[3] = tested on: LNCaP; assay: Inhibition of cells growth by colorimetric (SRB) assay, LNCaP; conditions: for GI50 / CC50: Homo sapiens, LNCaP, 48 h; for GI50: read-out: LN-caP GI50, SRB assay, 48 hours exposure; for CC50: read-out: LN-caP LC50, SRB assay, 48 hours exposure; for LN-caP TGI: SRB assay, 48 hours exposure
Method in brief: as §1

[4] = tested on: SK-BR-3; assay: Inhibition of cells growth by colorimetric (SRB) assay, SK-BR-3; conditions: for GI50 / CC50: Homo sapiens, SK-BR-3, 48 h; for GI50: read-out: SK-BR-3 GI50, SRB assay, 48 hours exposure; for CC50: read-out: SK-BR-3 LC50, SRB assay, 48 hours exposure; for SK-BR-3 TGI: SRB assay, 48 hours exposure
Method in brief: as §1

[5] = tested on: DU-145; assay: Inhibition of cells growth by colorimetric (SRB) assay, DU-145; conditions: for GI50 / CC50: Homo sapiens, DU-145, 48 h; for GI50: read-out: DU-145 GI50, SRB assay, 48 hours exposure; for CC50: read-out: DU-145 LC50, SRB assay, 48 hours exposure; for DU-145 TGI: SRB assay, 48 hours exposure
Method in brief: as §1

[6] = tested on: LoVo; assay: Inhibition of cells growth by colorimetric (SRB) assay, LoVo; conditions: for GI50 / CC50: Homo sapiens, LoVo, 48 h; for GI50: read-out: LOVO GI50, SRB assay, 48 hours exposure; for CC50: read-out: LOVO LC50, SRB assay, 48 hours exposure; for LOVO TGI: SRB assay, 48 hours exposure
Method in brief: as §1

[7] = tested on: PANC-1; assay: Inhibition of cells growth by colorimetric (SRB) assay, PANC-1; conditions: for GI50 / CC50: Homo sapiens, PANC-1, 48 h; for GI50: read-out: PANC-1 GI50, SRB assay, 48 hours exposure; for CC50: read-out: PANC-1 LC50, SRB assay, 48 hours exposure; for PANC-1 TGI: SRB assay, 48 hours exposure
Method in brief: as §1

[8] = tested on: A-549; assay: Inhibition of cells growth by colorimetric (SRB) assay, A-549; conditions: for GI50 / CC50: Homo sapiens, A549, 48 h; for GI50: read-out: A-549 GI50, SRB assay, 48 hours exposure; for CC50: read-out: A-549 LC50, SRB assay, 48 hours exposure; for A-549 TGI: SRB assay, 48 hours exposure
Method in brief: as §1

[9] = tested on: HeLa-APL; assay: Inhibition of cells growth by colorimetric (SRB) assay, HeLa-APL; conditions: for GI50 / CC50: Homo sapiens, 48 h; for GI50: read-out: HELA-APL GI50, SRB assay, 48 hours exposure; for CC50: read-out: HELA-APL LC50, SRB assay, 48 hours exposure; for HELA-APL TGI: SRB assay, 48 hours exposure
From the text: (§2) The finality of these assays is to interrupt the growth of a “in vitro” tumor cell culture by means a continued exhibition of the cells to the sample to be testing.
(§3) This form of the assay employs 96 well cell culture microplates of 9 mm diameter (Faircloth, 1988; Mosmann, 1983). Most of the cell lines are obtained from American Type Culture Collection (ATCC) derived from different human cancer types.
(§4) Cells are maintained in RPMI 1640 10% FBS, supplemented with 0.1 g/l penicillin and 0.1 g/l streptomycin sulphate and then incubated at 37° C., 5% CO2 and 98% humidity. For the experiments, cells were harvested from subconfluent cultures using trypsin and resuspended in fresh medium before plating.
(§5) Cells are seeded in 96 well microtiter plates, at 5×10^3 cells per well in aliquots of 195 μl medium, and they are allowed to attach to the plate surface by growing in drug free medium for 18 hours. Afterward, samples are added in aliquots of 5 μl in a ranging from 10 to 10^−8 μg/ml, dissolved in DMSO/EtOH/PBS (0.5:0.5:99). After 48 hours exposure, the antitumor effect are measured by the SRB methodology: cells are fixed by adding 50 μl of cold 50% (wt/vol) trichloroacetic acid (TCA) and incubating for 60 minutes at 4° C. Plates are washed with deionized water and dried. One hundred μl of SRB solution (0.4% wt/vol in 1% acetic acid) is added to each microtiter well and incubated for 10 minutes at room temperature. Unbound SRB is removed by washing with 1% acetic acid. Plates are air dried and bound stain is solubilized with Tris buffer. Optical densities are read on a automated spectrophotometric plate reader at a single wavelength of 490 nm.
(§6) The values for mean +/−SD of data from triplicate wells are calculated. Some parameters for cellular responses can be calculated: GI=growth inhibition, TGI=total growth inhibition (cytostatic effect) and LC=cell killing (cytotoxic effect).

[10] = tested on: SK-MEL-28; assay: Inhibition of cells growth by colorimetric (SRB) assay, SK-MEL-28; conditions: for GI50 / CC50: Homo sapiens, SK-MEL-28, 48 h; for GI50: read-out: MEL-28 GI50, SRB assay, 48 hours exposure; for CC50: read-out: MEL-28 LC50, SRB assay, 48 hours exposure; for MEL-28 TGI: SRB assay, 48 hours exposure
Method in brief: as §1

[11] = tested on: HT-29; assay: Inhibition of cells growth by colorimetric (SRB) assay, HT-29; conditions: for GI50 / CC50: Homo sapiens, HT-29, 48 h; for GI50: read-out: HT-29 GI50, SRB assay, 48 hours exposure; for CC50: read-out: HT-29 LC50, SRB assay, 48 hours exposure; for HT-29 TGI: SRB assay, 48 hours exposure
Method in brief: as §1

[12] = tested on: K-562; assay: Inhibition of cells growth by colorimetric (SRB) assay, K-562; conditions: for GI50 / CC50: Homo sapiens, K562, 48 h; for GI50: read-out: K-562 GI50, SRB assay, 48 hours exposure; for CC50: read-out: K-562 LC50, SRB assay, 48 hours exposure; for K-562 TGI: SRB assay, 48 hours exposure
Method in brief: as §1

[13] = tested on: IGROV-1; assay: Inhibition of cells growth by colorimetric (SRB) assay, IGROV-1; conditions: for GI50 / CC50: Homo sapiens, IGROV-1, 48 h; for GI50: read-out: IGROV GI50, SRB assay, 48 hours exposure; for CC50: read-out: IGROV LC50, SRB assay, 48 hours exposure; for IGROV TGI: SRB assay, 48 hours exposure
Method in brief: as §1

[14] = tested on: HeLa; assay: Inhibition of cells growth by colorimetric (SRB) assay, HeLa; conditions: for GI50: Homo sapiens, HeLa, 48 h, read-out: HELA GI50, SRB assay, 48 hours exposure; for HELA TGI: SRB assay, 48 hours exposure
From the text: as §2, §3, §4, §5, §6

For `Cl.Nc1nccc(-c2c3c(Cl)ccnc3n3c(N)nccc23)n1` [Compound 83], the GI50 [1] was 1080 nM, the CC50 [1] was 26000 nM and the “IGROV-ET TGI” value [1] was 2.29E−06. The GI50 [2] was 803 nM, the CC50 [2] was 17800 nM and the “LOVO-DOX TGI” value [2] was 1.72E−06. The GI50 [3] was 424 nM, the CC50 [3] was 1520 nM and the “LN-caP TGI” value [3] was 8.03E−07. The GI50 [4] was 575 nM, the CC50 [4] was 1920 nM and the “SK-BR-3 TGI” value [4] was 1.05E−06. The GI50 [5] was 621 nM, the CC50 [5] was 8320 nM and the “DU-145 TGI” value [5] was 1.49E−06. For the same compound, the GI50 [6] was 471 nM, the CC50 [6] was 2090 nM and the “LOVO TGI” value [6] was 9.90E−07. For the same compound, the GI50 [7] was 1950 nM, the CC50 [7] was 26000 nM and the “PANC-1 TGI” value [7] was 1.07E−05. The GI50 [8] was 757 nM, the CC50 [8] was 8660 nM and the “A-549 TGI” value [8] was 1.57E−06. For the same compound, the GI50 [9] was 47.8 nM, the CC50 [9] was 257 nM and the “HELA-APL TGI” value [9] was 1.11E−07. For the same compound, the GI50 [10] was 1320 nM, the CC50 [10] was 11800 nM and the “MEL-28 TGI” value [10] was 3.64E−06. The GI50 [11] was 1370 nM, the CC50 [11] was 26000 nM and the “HT-29 TGI” value [11] was 3.90E−06. For the same compound, the GI50 [12] was 2600 nM, the CC50 [12] was 26000 nM and the “K-562 TGI” value [12] was 1.73E−05. The GI50 [13] was 998 nM, the CC50 [13] was 26000 nM and the “IGROV TGI” value [13] was 3.17E−06. The GI50 [14] was 47.8 nM and the “HELA TGI” value [14] was 1.38E−07.

With `Nc1nccc(-c2c3cccnc3n3c(N)nccc23)n1` [Deoxyvariolin 4, deoxyvariolin B, reference compound] the GI50 [1] was 129 nM, the CC50 [1] was 22900 nM and the “IGROV-ET TGI” value [1] was 3.42E−07. For the same compound, the GI50 [2] was 101 nM, the CC50 [2] was 36100 nM and the “LOVO-DOX TGI” value [2] was 2.96E−07. The GI50 [3] was 64.2 nM, the CC50 [3] was 272 nM and the “LN-caP TGI” value [3] was 1.32E−07. The GI50 [4] was 73.6 nM, the CC50 [4] was 345 nM and the “SK-BR-3 TGI” value [4] was 1.59E−07. The GI50 [5] was 95.2 nM, the CC50 [5] was 5300 nM and the “DU-145 TGI” value [5] was 2.46E−07. The GI50 [6] was 102 nM, the CC50 [6] was 22100 nM and the “LOVO TGI” value [6] was 2.54E−07. For the same compound, the GI50 [7] was 162 nM, the CC50 [7] was 15400 nM and the “PANC-1 TGI” value [7] was 1.76E−06. The GI50 [8] was 63.8 nM, the CC50 [8] was 12200 nM and the “A-549 TGI” value [8] was 2.62E−07. For the same compound, the GI50 [9] was 66 nM, the CC50 [9] was 318 nM and the “HELA-APL TGI” value [9] was 1.45E−07. The GI50 [10] was 69.2 nM, the CC50 [10] was 321 nM and the “MEL-28 TGI” value [10] was 1.49E−07. The GI50 [11] was 117 nM, the CC50 [11] was 11300 nM and the “HT-29 TGI” value [11] was 4.98E−07. For the same compound, the GI50 [12] was 727 nM, the CC50 [12] was 24600 nM and the “K-562 TGI” value [12] was 2.20E−06. For the same compound, the GI50 [13] was 80.8 nM, the CC50 [13] was 1320 nM and the “IGROV TGI” value [13] was 8.10E−08. For the same compound, the GI50 [14] was 81.1 nM and the “HELA TGI” value [14] was 1.60E−07.
